Test results as given in patent US4107201A, “S-Phenenyltris(thioureylene)trinaphthalenetrisulfonic acid salts” (American Cyanamid Company, priority 1977, dated 1978).
Where a name gives a salt, the structure may show the parent alone.

Key:
[1] = tested on: late components of human complement (C3-C9); test: Test, Code 035 (C3-C9 inhibitor): lysis of EAC 142 by late components of human complement; type: biochemical; settings: well number in two-fold serial dilution assay; higher well number indicates higher activity
Excerpt: An active inhibitor protects C2 from C1 and C4; (ii) Test, Code 035 (C3-C9 inhibitor) -- This test determines the ability of the late components of human complement (C3-C9) to lyse EAC 142 in the presence of appropriate dilutions of the test compound. An active inhibitor protects EAC 142 from lysis by human C3-C9; (iii) Test, Code 036 (C-Shunt inhibitor) -- In this test human erythrocytes rendered fragile are lysed in autologous serum via the shunt pathway activated by cobra venom factor in the presence of appropriate dilutions of the test compound. Inhibition of the shunt pathway results in failure of lysis; (iv) Forssman Vasculitis Test -- Here, the well known complement dependent lesion, Forssman vasculitis, is produced in guinea pigs by intradermal injection of rabbit anti-Forssman antiserum. […]

whole complement = test: Complement Level Reduction Test: serum whole complement of dosed guinea pigs by capillary tube assay; type: in vivo; settings: guinea pig, vs simultaneous controls
Excerpt: An active inhibitor protects C2 from C1 and C4; (ii) Test, Code 035 (C3-C9 inhibitor) -- This test determines the ability of the late components of human complement (C3-C9) to lyse EAC 142 in the presence of appropriate dilutions of the test compound. An active inhibitor protects EAC 142 from lysis by human C3-C9; (iii) Test, Code 036 (C-Shunt inhibitor) -- In this test human erythrocytes rendered fragile are lysed in autologous serum via the shunt pathway activated by cobra venom factor in the presence of appropriate dilutions of the test compound. Inhibition of the shunt pathway results in failure of lysis; (iv) Forssman Vasculitis Test -- Here, the well known complement dependent lesion, Forssman vasculitis, is produced in guinea pigs by intradermal injection of rabbit anti-Forssman antiserum. The lesion is measured in terms of diameter, edema and hemorrhage and the extent to which a combined index of these is inhibited by prior intraperitoneal injection of the test compound at 200 mg/kg is then reported, unless otherwise stated; (v) Forssman Shock Test -- Lethal shock is produced in guinea pigs by an i.v. injection of anti-Forssman antiserum and the harmonic mean death time of treated guinea pigs is compared with that of simultaneous controls; (vi) Complement Level Reduction Test -- In this test, the above dosed guinea pigs, or others, are bled for serum and the complement level is determined in undiluted serum by the capillary tube method of U.S. Pat. No. 3,876,376 and compared to undosed control guinea pigs; and (vii) Cap 50 Test -- Here, appropriate amounts of the test compound are added to a pool of guinea pig serum in vitro, after which the undiluted serum capillary tube assay referred to above is run. The concentration of compound inhibiting 50% is reported.
With reference to Table I, guinea pigs weighing about 300 g were dosed intravenously (i.v.) or intraperitoneally (i.p.) with 200 mg/kg of the test compound dissolved in saline and adjusted to pH 7-8. […] The serum was tested for whole complement using the capillary tube assay. Percent inhibition was calculated by comparison with simultaneous controls. The results appear in Table I together with results of tests, code 026, 035, 036, Cap 50, % inhibition and Forssman shock.

complement system = settings: cited from earlier work
[2] = tested on: hereditary angioneurotic edema; settings: in vivo; cited from earlier work
[3] = tested on: total hemolytic complement activity (human serum); settings: in vitro and in vivo, reduction in total hemolytic complement activity; cited from earlier work

In the case of O=S(=O)(O)c1cc(NC(=S)Nc2cc(NC(=S)Nc3cc(S(=O)(=O)O)cc4cc(S(=O)(=O)O)cc(S(=O)(=O)O)c34)cc(NC(=S)Nc3cc(S(=O)(=O)O)cc4cc(S(=O)(=O)O)cc(S(=O)(=O)O)c34)c2)c2c(S(=O)(=O)O)cc(S(=O)(=O)O)cc2c1 [8,8',8"-[s-Phenenyltris(2-thioureylene)]tri-1,3,6-naphthalenetrisulfonic acid nonasodium salt], the “C-Late 035 Wells” value [1] is reported as “+1 Wells”, the “% change in serum whole complement level” value (whole complement; 200 mg/kg i.p., 30 mins.) is reported as -81% and the “% change in serum whole complement level” value (whole complement; 200 mg/kg i.p., 60 mins.) is reported as -84%. For the same molecule, the “% change in serum whole complement level” value (whole complement; 200 mg/kg i.p., 120 mins.) was -91%, the “% change in serum whole complement level” value (whole complement; 200 mg/kg i.v., 2 mins.) was -98% and the “% change in serum whole complement level” value (whole complement; 200 mg/kg i.v., 30 mins.) was -92%. The “% change in serum whole complement level” value (whole complement; 200 mg/kg i.v., 120 mins.) was -86%.
In the case of Cc1ccc(C(=O)Nc2ccc(S(=O)(=O)O)c3cc(S(=O)(=O)O)cc(S(=O)(=O)O)c23)cc1NC(=O)c1cccc(NC(=O)Nc2cccc(C(=O)Nc3cc(C(=O)Nc4ccc(S(=O)(=O)O)c5cc(S(=O)(=O)O)cc(S(=O)(=O)O)c45)ccc3C)c2)c1 [Suramin], the “anticomplementary effect / complement inhibition” value (complement system) is listed as “competitive inhibitor of the complement system” and the “use in treatment of hereditary angioneurotic edema” value (shortened to “use in treatment”) [2] is listed as “used with success”.
In the case of Nc1ccc2cc(S(=O)(=O)O)cc(O)c2c1N=Nc1ccc(NC(=O)Nc2ccc(N=Nc3c(N)ccc4cc(S(=O)(=O)O)cc(O)c34)c(S(=O)(=O)O)c2)cc1S(=O)(=O)O [chlorazol fast pink, 3,3'-ureylenebis-[6-(2-amino-8-hydroxy-6-sulfo-1-naphthylazo)]benzenesulfonic acid, tetrasodium salt], the “anticomplementary effect / complement inhibition” value (complement system) is listed as “anticomplementary effect”.
In the case of NCCCCCC(=O)O [epsilon-aminocaproic acid], the “use in treatment” value [2] is given as “used with success”.
For NC[C@H]1CC[C@H](C(=O)O)CC1 [tranexamic acid], the “use in treatment” value [2] is given as “used with success”.
In the case of heparin, the “anticomplementary effect / complement inhibition” value (complement system) is given as “anticomplementary effect”.
In the case of pentosan-poly-sulfoester, the “anticomplementary activity on human serum” value [3] is given as “anticomplementary activity on human serum both in vitro and in vivo”.
